This is an account of results in ChEMBL document CHEMBL5214956, “Structure-based design and modular synthesis of novel PI4K class II inhibitors bearing a 4-aminoquinazoline scaffold” (Bioorg Med Chem Lett, 2022).

SMILES strings stand for the structures. Where only a bound is given, the exact number is not on record here.

Experiment [1] concerns the target Phosphatidylinositol 4-kinase alpha (Homo sapiens, UniProt P42356). Description: Inhibition of PI4KA catalytic domain (unknown origin) assessed as enzyme residual activity incubated for 60 mins using ATP as substrate by ATP-Glo luminescent assay.
The target in experiment [2] is Phosphatidylinositol 4-kinase beta (Homo sapiens, UniProt Q9UBF8). The experiment is described as follows: Inhibition of PI4KB catalytic domain (unknown origin) assessed as enzyme residual activity incubated for 60 mins using ATP as substrate by ATP-Glo luminescent assay.
Phosphatidylinositol 4-kinase beta, sequence (Q9UBF8 whole entry, the tested form may be a part): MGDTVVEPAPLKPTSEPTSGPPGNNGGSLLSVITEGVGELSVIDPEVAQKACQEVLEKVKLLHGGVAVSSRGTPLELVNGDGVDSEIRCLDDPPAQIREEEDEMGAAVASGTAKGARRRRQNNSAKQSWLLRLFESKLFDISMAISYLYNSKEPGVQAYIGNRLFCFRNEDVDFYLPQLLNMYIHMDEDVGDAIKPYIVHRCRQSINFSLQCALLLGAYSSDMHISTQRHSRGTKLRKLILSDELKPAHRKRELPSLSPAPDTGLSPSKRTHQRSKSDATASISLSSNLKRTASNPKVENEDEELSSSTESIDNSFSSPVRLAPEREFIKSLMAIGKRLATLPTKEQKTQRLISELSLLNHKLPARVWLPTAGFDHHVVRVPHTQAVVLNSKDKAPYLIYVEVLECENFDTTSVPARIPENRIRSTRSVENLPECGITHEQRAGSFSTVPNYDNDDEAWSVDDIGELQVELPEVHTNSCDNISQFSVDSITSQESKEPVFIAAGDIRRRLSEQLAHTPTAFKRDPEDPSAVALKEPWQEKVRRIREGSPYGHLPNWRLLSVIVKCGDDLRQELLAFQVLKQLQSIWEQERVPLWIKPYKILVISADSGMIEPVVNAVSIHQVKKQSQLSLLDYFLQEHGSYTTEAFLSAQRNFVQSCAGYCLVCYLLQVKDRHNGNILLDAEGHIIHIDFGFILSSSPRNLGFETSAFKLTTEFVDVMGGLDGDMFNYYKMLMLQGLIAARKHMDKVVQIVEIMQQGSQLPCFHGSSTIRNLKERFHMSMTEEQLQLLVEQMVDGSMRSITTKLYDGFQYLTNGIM
Experiment [3] deals with Phosphatidylinositol 4-kinase type 2-alpha (Homo sapiens, UniProt Q9BTU6). The experiment is described as follows: Inhibition of PI4K2A catalytic domain (unknown origin) assessed as enzyme residual activity incubated for 60 mins using ATP as substrate by ATP-Glo luminescent assay.
Phosphatidylinositol 4-kinase type 2-alpha, sequence (Q9BTU6 whole entry, the tested form may be a part): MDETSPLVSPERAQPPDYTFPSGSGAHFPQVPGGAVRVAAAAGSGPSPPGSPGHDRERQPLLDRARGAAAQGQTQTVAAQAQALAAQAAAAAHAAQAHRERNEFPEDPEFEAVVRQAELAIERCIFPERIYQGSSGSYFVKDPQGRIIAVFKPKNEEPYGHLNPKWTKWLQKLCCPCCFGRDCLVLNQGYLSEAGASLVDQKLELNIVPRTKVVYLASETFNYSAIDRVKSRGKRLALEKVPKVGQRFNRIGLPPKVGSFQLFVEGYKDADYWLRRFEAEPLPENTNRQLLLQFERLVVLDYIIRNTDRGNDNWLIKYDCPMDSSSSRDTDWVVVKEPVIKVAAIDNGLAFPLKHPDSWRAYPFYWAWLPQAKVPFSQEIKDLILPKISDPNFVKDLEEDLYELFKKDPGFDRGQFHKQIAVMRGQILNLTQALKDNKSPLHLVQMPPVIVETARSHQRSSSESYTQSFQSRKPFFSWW

Phosphatidylinositol 4-kinase alpha, sequence (P42356 whole entry, the tested form may be a part): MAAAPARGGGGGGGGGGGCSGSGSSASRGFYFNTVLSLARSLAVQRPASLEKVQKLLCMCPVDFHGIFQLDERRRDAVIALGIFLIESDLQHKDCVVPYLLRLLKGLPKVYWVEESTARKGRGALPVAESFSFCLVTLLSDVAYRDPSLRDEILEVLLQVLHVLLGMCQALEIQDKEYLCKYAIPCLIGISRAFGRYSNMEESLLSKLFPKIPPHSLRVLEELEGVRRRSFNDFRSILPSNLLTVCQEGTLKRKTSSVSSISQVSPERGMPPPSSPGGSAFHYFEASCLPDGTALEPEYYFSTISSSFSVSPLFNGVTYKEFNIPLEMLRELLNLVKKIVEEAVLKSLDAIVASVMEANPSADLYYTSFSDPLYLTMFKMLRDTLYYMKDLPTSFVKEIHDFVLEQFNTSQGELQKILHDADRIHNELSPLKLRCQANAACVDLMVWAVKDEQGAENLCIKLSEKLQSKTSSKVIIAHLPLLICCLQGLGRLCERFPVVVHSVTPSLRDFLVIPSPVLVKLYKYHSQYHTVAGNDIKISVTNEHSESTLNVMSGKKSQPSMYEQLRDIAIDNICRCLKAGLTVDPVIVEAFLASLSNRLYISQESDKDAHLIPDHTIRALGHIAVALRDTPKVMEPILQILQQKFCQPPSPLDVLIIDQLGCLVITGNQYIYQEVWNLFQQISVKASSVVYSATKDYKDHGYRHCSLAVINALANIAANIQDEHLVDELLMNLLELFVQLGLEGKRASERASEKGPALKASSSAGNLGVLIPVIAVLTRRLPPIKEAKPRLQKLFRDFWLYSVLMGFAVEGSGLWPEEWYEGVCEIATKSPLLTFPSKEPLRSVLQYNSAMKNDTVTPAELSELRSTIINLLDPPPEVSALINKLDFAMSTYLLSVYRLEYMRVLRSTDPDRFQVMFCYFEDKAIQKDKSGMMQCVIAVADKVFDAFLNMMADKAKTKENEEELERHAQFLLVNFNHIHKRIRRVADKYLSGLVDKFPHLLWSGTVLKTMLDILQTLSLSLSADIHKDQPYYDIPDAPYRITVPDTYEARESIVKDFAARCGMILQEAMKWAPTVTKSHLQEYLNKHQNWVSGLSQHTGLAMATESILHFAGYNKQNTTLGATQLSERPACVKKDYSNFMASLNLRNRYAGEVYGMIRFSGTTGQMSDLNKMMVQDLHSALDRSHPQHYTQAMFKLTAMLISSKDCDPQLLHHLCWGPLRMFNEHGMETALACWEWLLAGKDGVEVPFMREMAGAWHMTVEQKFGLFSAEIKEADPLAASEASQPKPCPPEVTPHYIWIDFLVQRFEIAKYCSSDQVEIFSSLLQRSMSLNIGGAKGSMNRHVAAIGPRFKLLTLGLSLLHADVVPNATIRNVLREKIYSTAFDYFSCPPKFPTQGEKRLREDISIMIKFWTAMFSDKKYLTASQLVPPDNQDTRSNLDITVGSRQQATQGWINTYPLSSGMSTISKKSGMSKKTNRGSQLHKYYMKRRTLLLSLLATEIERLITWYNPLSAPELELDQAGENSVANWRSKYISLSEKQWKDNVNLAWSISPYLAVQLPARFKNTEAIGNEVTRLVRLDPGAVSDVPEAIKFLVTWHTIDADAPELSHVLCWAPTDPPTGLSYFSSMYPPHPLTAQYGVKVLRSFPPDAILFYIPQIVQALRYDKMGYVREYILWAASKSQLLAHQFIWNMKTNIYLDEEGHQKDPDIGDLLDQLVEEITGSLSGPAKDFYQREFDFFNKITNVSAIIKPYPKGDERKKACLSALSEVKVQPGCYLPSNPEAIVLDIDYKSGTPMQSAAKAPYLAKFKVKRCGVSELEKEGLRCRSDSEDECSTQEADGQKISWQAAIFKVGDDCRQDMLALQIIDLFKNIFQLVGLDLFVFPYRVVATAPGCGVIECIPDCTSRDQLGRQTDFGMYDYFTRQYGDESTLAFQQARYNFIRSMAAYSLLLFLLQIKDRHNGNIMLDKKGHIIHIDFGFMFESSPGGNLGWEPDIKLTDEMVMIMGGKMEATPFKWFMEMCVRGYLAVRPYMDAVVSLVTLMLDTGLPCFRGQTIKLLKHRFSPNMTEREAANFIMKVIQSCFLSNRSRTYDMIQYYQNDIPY

What is called IC50 is the midpoint of a concentration-inhibition curve. Regarding `Nc1ncnc2c1ncn2[C@@H]1C[C@@]2(CO)CC[C@@H]1C2`, the IC50 in experiment [1] and in experiment [2] was above 50 µM in each case.
`CC(=O)Nc1cccc(-c2cc3ncnc(N)c3cc2C(N)=O)c1`: the IC50 in experiment [1] and in experiment [2] was above 50 µM each time.
For `NC(=O)c1cc2c(N)ncnc2cc1-c1cccc(CO)c1`, the IC50 in experiment [1] and in experiment [2] was above 50 µM in each case.
Consider `NC(=O)c1cc2c(N)ncnc2cc1-c1ccc2[nH]cnc2c1`, for which the concentration for half-maximal inhibition (IC50) in experiment [1] was above 50 µM.
On to `NC(=O)c1cc2c(N)ncnc2cc1-c1cncc(CO)c1`, for which, in experiment [3], the concentration for half-maximal inhibition (IC50) is above 50 µM.
Consider `NC(=O)c1cc2c(N)ncnc2cc1-c1ccc(CO)o1`, for which, in experiment [3], the 50% inhibitory concentration (IC50) was above 50 µM.
For `NC(=O)c1cc2c(N)ncnc2cc1-c1ccc2[nH]ccc2c1`, the concentration for half-maximal inhibition (IC50) in experiment [1] and in experiment [2] was above 50 µM throughout.
Take `NC(=O)c1cc2c(N)ncnc2cc1-c1ccc2c(c1)CCO2`: the IC50 in experiment [1] and in experiment [2] was above 50 µM each time.
Consider `CCCCc1cc(=O)oc2cc(OCC(=O)N[C@@H](Cc3c[nH]c4ccc(O)cc34)C(=O)O)ccc12`, for which the concentration for half-maximal inhibition (IC50) in experiment [3] was 1.46 µM; in experiment [1], above 50 µM; in experiment [2] it was above 50 µM.
As to `NC(=O)c1cc2c(N)ncnc2cc1-c1ccc2cc[nH]c2c1`, the IC50 in experiment [1] and in experiment [2] was above 50 µM in each case.
For the molecule `NC(=O)c1cc2c(N)ncnc2cc1-c1ccc2c(c1)OCO2`, the IC50 in experiment [1] and in experiment [2] was above 50 µM throughout.
Consider `COC[C@H]1OC(=O)c2coc3c2[C@@]1(C)C1=C(C3=O)[C@@H]2CCC(=O)[C@@]2(C)C[C@H]1OC(C)=O` [WORTMANNIN], for which the concentration for half-maximal inhibition (IC50) is above 30 µM in experiment [3], 0.28 µM in experiment [1] and 0.44 µM in experiment [2].
